Data from US20250346550A1, “METHODS OF MODULATING ENDONUCLEASE G USING RESVERATROL AND ITS DERIVATIVES” (THE REGENTS OF THE UNIVERSITY OF COLORADO A BODY CORPORATE, priority 2022, published 2025).

Experiments:
Assay type in all cases: in vivo, C. elegans
[1] = test system: germline tumor in daf-16(mu86); cki-2(ok2105); glp-1(ar202) mutant (ET507); assay: germline tumor model (ET507); details: 100 μM, ET507 at 20° C., vs 0.25% ethanol (FIG. 14)
Method: FIG. 9. Cis-resveratrol inhibits and trans-resveratrol promotes germline tumor formation. Tumor size and tumor occurring frequency of the daf-16(mu86); cki-2(0k2105); glp-1 (ar202) mutant grown at 20° C. and treated with 1% ethanol (Mock), 200 μM cis-resveratrol (Cis), and 200 μM trans-resveratrol (Trans), respectively, are shown. Tumor assays were performed in triplicate with 100 animals per replicate. a, A five-stage classification was created to measure the tumor size in adult day 5 animals under the Normaski optic. Score 1 denotes the normal gonads seen in wild-type animals. Score 5 denotes enlarged gonads full of mitotic germ cells and without any egg or oocyte. Score 2-4 denote partially enlarged gonads. b, Tumor frequency indicates the percentage of animals with enlarged gonads (score 5). Data from three independent biological replicates are shown as mean±SEM. *P<0.05; **P<0.01; ***P<0.001, two-sided, unpaired t-test.
FIG. 14. stabilized cis-resveratrol inhibits germline tumor formation as well as cis-resveratrol. Tumor occurring frequency of the daf-16 (mu86); cki-2 (0k2105); glp-1 (ar202) mutant (ET507) grown at 20° C. and treated with 0.25% ethanol (Mock), 100 μM cis-resveratrol, and 100 μM Stabilized cis-resveratrol, respectively, are shown. Tumor assays were performed in triplicate with 100 animals per replicate. Data are mean±s.e.m. ****P<0.001, two-sided, unpaired t-test
The present inventors tested whether resveratrol isomers affect tumorigenesis in a C. elegans germline tumor model (ET507), in which three cell growth genes, daf-16, cki-2, and glp-1, are mutated, leading to uncontrolled germ cell proliferation and germline tumor.

[2] = toxicity observed in animal assays; details: neuronal death and tumor assays, 100 μM
Text: As described above, Applicant's successfully synthesized a new compound, stabilized cis-resveratrol.

[3] = test system: α-synuclein-induced dopaminergic neuronal death in baIn11 animals; assay: α-synuclein-based Parkinson's Disease model, DA neuronal death; details: 100 μM, adult day 2 baIn11 animals vs 0.25% ethanol
Text: FIG. 8. […] In each experiment, 300 animals were scored to determine the percentage of animals losing at least one dopaminergic neuron in the head. Data are mean±s.e.m. *P<0.05; ***P<0.001, two-sided, unpaired t-test.
FIG. 13. […] In each experiment, 300 animals were scored to determine the percentage of animals losing at least one of the six dopaminergic neurons in the head. Data are mean±s.e.m. ****P<0.001, two-sided, unpaired t-test.
In addition to PME and apoptosis, EndoG was previously shown to play an important role in mediating dopaminergic (DA) neuronal death induced by expression of human α-synuclein, which is widely considered to be a major proponent of Parkinson's disease. However, the mechanism by which EndoG mediates α-synuclein-induced neurodegeneration is unclear. In a C. elegans α-synuclein-based Parkinson's Disease model, co-expression of GFP and human α-synuclein in C. elegans dopaminergic neurons under the control of the promoter of the dat-1 gene, which encodes a dopamine transporter, from an integrated transgene baIn11 (Pdat-1::gfp/Pdat-1::α-synuclein) caused DA neuronal death in 30% of adult baIn11 animals (FIG. 8a). The cps-6(tm3222) mutation blocked DA neuronal death in adult baIn11 animals (FIG. 8a), confirming that CPS-6 is important for α-synuclein-induced DA neuronal death.

In the case of `O=C1CCC(c2ccc(O)cc2)=C1c1cc(O)cc(O)c1` [stabilized cis-resveratrol], the germline tumor formation [1] is reported as “comparable activity as cis-resveratrol in strongly suppressing”, the “toxicity in animal assays” value [2] is reported as “No obvious toxicity was observed” and the “effect on α-synuclein-induced DA neuronal death” value [3] is reported as “comparable activity as cis-resveratrol in strongly suppressing”.
